Assay results from US11124538B2, “Neuroactive steroids, compositions, and uses thereof” (Sage Therapeutics, Inc., priority 2015, dated 2021).

Molecular target: [35S]-TBPS binding to rat brain cortical membranes in the presence of 5 μM GABA (GABA receptor complex)
Test: Steroid inhibition of [35S]-TBPS binding (radioligand displacement)
Conditions: 3 nM [35S]-TBPS
Procedure: TBPS binding assays using rat brain cortical membranes in the presence of 5 μM GABA has been described (Gee et al, J. Pharmacol. Exp. Ther. 1987, 241, 346-353; Hawkinson et al, Mol. Pharmacol. 1994, 46, 977-985; Lewin, A. H et al., Mol. Pharmacol. 1989, 35, 189-194).
Briefly, cortices are rapidly removed following decapitation of carbon dioxide-anesthetized Sprague-Dawley rats (200-250 g). The cortices are homogenized in 10 volumes of ice-cold 0.32 M sucrose using a glass/teflon homogenizer and centrifuged at 1500×g for 10 min at 4° C. The resultant supernatants are centrifuged at 10,000×g for 20 min at 4° C. to obtain the P2 pellets. The P2 pellets are resuspended in 200 mM NaCl/50 mM Na—K phosphate pH 7.4 buffer and centrifuged at 10,000×g for 10 min at 4° C. This washing procedure is repeated twice and the pellets are resuspended in 10 volumes of buffer. Aliquots (100 μL) of the membrane suspensions are incubated with 3 nM [^35S]-TBPS and 5 μL aliquots of test drug dissolved in dimethyl sulfoxide (DMSO) (final 0.5%) in the presence of 5 μM GABA. The incubation is brought to a final volume of 1.0 mL with buffer. […] Following a 90 min incubation at room temp, the assays are terminated by filtration through glass fiber filters (Schleicher and Schuell No. 32) using a cell harvester (Brandel) and rinsed three times with ice-cold buffer. Filter bound radioactivity is measured by liquid scintillation spectrometry. Non-linear curve fitting of the overall data for each drug averaged for each concentration is done using Prism (GraphPad). […] The concentration of test compound producing 50% inhibition (IC50) of specific binding and the maximal extent of inhibition (Imax) are determined for the individual experiments with the same model used for the overall data and then the means±SEM.s of the individual experiments are calculated.
Various compounds are or can be screened to determine their potential as modulators of [^35S]-TBPS binding in vitro. These assays are or can be performed in accordance with the above discussed procedures.

SMILES: COC[C@]12CC[C@@](C)(O)C[C@H]1CC[C@H]1[C@@H]3CC[C@H](C(=O)Cn4nc5cc(F)cc(F)c5n4)[C@@]3(C)CC[C@@H]12 [Compound 10]
- IC50: < 10 nM

SMILES: COC[C@]12CC[C@@](C)(O)C[C@H]1CC[C@H]1[C@@H]3CC[C@H](C(=O)Cn4nnc5cc(Cl)cnc54)[C@@]3(C)CC[C@@H]12 [Compound 12]
- IC50: < 10 nM

SMILES: COC[C@]12CC[C@@](C)(O)C[C@H]1CC[C@H]1[C@@H]3CC[C@H](C(=O)Cn4nc5cc(Cl)cnc5n4)[C@@]3(C)CC[C@@H]12 [Compound 13]
- IC50: < 10 nM

SMILES: COC[C@]12CC[C@@](C)(O)C[C@H]1CC[C@H]1[C@@H]3CC[C@H](C(=O)Cn4cc5ccc(F)cc5n4)[C@@]3(C)CC[C@@H]12 [Compound 14]
- IC50: < 10 nM

SMILES: COC[C@]12CC[C@@](C)(O)C[C@H]1CC[C@H]1[C@@H]3CC[C@H](C(=O)Cn4ncc5ccc(F)cc54)[C@@]3(C)CC[C@@H]12 [Compound 15]
- IC50: < 10 nM

SMILES: COC[C@]12CC[C@@](C)(O)C[C@H]1CC[C@H]1[C@@H]3CC[C@H](C(=O)Cn4nnc5ccccc54)[C@@]3(C)CC[C@@H]12 [Compound 18]
- IC50: < 10 nM

SMILES: COC[C@]12CC[C@@](C)(O)C[C@H]1CC[C@H]1[C@@H]3CC[C@H](C(=O)Cn4cc(SC)cn4)[C@@]3(C)CC[C@@H]12 [Compound 21]
- IC50: < 10 nM

SMILES: COC[C@]12CC[C@@](C)(O)C[C@H]1CC[C@H]1[C@@H]3CC[C@H](C(=O)Cn4nc5ccc(Cl)c(F)c5n4)[C@@]3(C)CC[C@@H]12 [Compound 24]
- IC50: < 10 nM

SMILES: COC[C@]12CC[C@@](C)(O)C[C@H]1CC[C@H]1[C@@H]3CC[C@H](C(=O)Cn4nnc5ccc(OC)cc54)[C@@]3(C)CC[C@@H]12 [Compound 25]
- IC50: < 10 nM

SMILES: COC[C@]12CC[C@@](C)(O)C[C@H]1CC[C@H]1[C@@H]3CC[C@H](C(=O)Cn4nnc5cc(OC)ccc54)[C@@]3(C)CC[C@@H]12 [Compound 26]
- IC50: < 10 nM

SMILES: COC[C@]12CC[C@@](C)(O)C[C@H]1CC[C@H]1[C@@H]3CC[C@H](C(=O)Cn4nc5ccc(OC)cc5n4)[C@@]3(C)CC[C@@H]12 [Compound 27]
- IC50: < 10 nM

SMILES: COC[C@]12CC[C@@](C)(O)C[C@H]1CC[C@H]1[C@@H]3CC[C@H](C(=O)Cn4nnc5c(OC)cccc54)[C@@]3(C)CC[C@@H]12 [Compound 28]
- IC50: < 10 nM

SMILES: COC[C@]12CC[C@@](C)(O)C[C@H]1CC[C@H]1[C@@H]3CC[C@H](C(=O)Cn4nnc5cccc(OC)c54)[C@@]3(C)CC[C@@H]12 [Compound 29]
- IC50: < 10 nM

SMILES: COC[C@]12CC[C@@](C)(O)C[C@H]1CC[C@H]1[C@@H]3CC[C@H](C(=O)Cn4nc5cccc(OC)c5n4)[C@@]3(C)CC[C@@H]12 [Compound 30]
- IC50: < 10 nM

SMILES: COC[C@]12CC[C@@](C)(O)C[C@@H]1CC[C@H]1[C@@H]3CC[C@H](C(=O)Cn4cc(SC)cn4)[C@@]3(C)CC[C@@H]12 [Compound 34]
- IC50: 10 to 50 nM

SMILES: COC[C@]12CC[C@@](C)(O)C[C@@H]1CC[C@H]1[C@@H]3CC[C@H](C(=O)Cn4cc([S+](C)[O-])cn4)[C@@]3(C)CC[C@@H]12 (stereo partly shown) [Compound 35]
- IC50: > 500 nM

SMILES: COC[C@]12CC[C@@](C)(O)C[C@H]1CC[C@H]1[C@@H]3CC[C@H](C(=O)Cn4cc5ccncc5n4)[C@@]3(C)CC[C@@H]12 [Compound 46]
- IC50: 10 to 50 nM

SMILES: COC[C@]12CC[C@@](C)(O)C[C@@H]1CC[C@H]1[C@@H]3CC[C@H](C(=O)Cn4nnc5c(F)c(Cl)ccc54)[C@@]3(C)CC[C@@H]12 [Compound 51]
- IC50: < 10 nM

SMILES: CC(C)OC[C@]12CC[C@@](C)(O)C[C@H]1CC[C@H]1[C@@H]3CC[C@H](C(=O)Cn4nnc5c(F)c(F)ccc54)[C@@]3(C)CC[C@@H]12 [Compound 68]
- IC50: < 10 nM

SMILES: CC(C)OC[C@]12CC[C@@](C)(O)C[C@H]1CC[C@H]1[C@@H]3CC[C@H](C(=O)Cn4nnc5ccc(F)c(F)c54)[C@@]3(C)CC[C@@H]12 [Compound 69]
- IC50: < 10 nM

SMILES: CC(C)OC[C@]12CC[C@@](C)(O)C[C@H]1CC[C@H]1[C@@H]3CC[C@H](C(=O)Cn4nc5ccc(F)c(F)c5n4)[C@@]3(C)CC[C@@H]12 [Compound 70]
- IC50: < 10 nM

SMILES: CC(C)OC[C@]12CC[C@@](C)(O)C[C@H]1CC[C@H]1[C@@H]3CC[C@H](C(=O)Cn4ncnn4)[C@@]3(C)CC[C@@H]12 [Compound 72]
- IC50: < 10 nM

SMILES: COC[C@]12CC[C@@](C)(O)C[C@@H]1CC[C@H]1[C@@H]3CC[C@H](C(=O)Cn4ncc(C(=O)O)n4)[C@@]3(C)CC[C@@H]12 [Compound 81]
- IC50: > 500 nM

SMILES: COC[C@]12CC[C@@](C)(O)C[C@@H]1CC[C@H]1[C@@H]3CC[C@H](C(=O)Cn4cc(C(=O)O)nn4)[C@@]3(C)CC[C@@H]12 [Compound 82]
- IC50: > 500 nM

SMILES: COC[C@]12CC[C@@](C)(O)C[C@@H]1CC[C@H]1[C@@H]3CC[C@H](C(=O)Cn4ncc(CO)n4)[C@@]3(C)CC[C@@H]12 [Compound 85]
- IC50: > 500 nM
